{"source": "patent US9035021B2", "about": "“Somatostatin analogues” (Novartis AG, priority 2001, dated 2015)", "key": {"blood vessel formation": {"tested_on": "blood vessel formation", "assay": "Angiogenesis test in nude mice (SiHa and MDA MB-231 cells)", "type": "in vivo", "settings": "dose e.g. 0.01 to 1000 μg/kg s.c.", "description": "Compound A also has an inhibiting effect on angiogenesis, as indicated in standard tests, e.g. in nude mice. Briefly, tumor cells (0.1 to 10×10^6 in 0.1 ml) (SiHa cells and MDA MB-231 cells prepared as disclosed in Angiogenesis, Ed. by R. Steiner, P. B. Weisz and R. Langer, 1992, Switzerland) are inoculated intracutaneously. Usually two midventral sites/mouse are injected which are located distant from the main ventral skin vessels so that the background vessel count is low. Control groups receive 0.1 ml 0.02% trypan blue in PBS. 10 days following injection, anesthetized mice are sacrificed by CO2 inhalation. The skin is mounted onto a plastic ring (40 mm diameter) for evaluation by an inverted microscope (Zeiss IM) at 12.5- and 25-fold magnification. As a measure of angiogenesis, vessels are photographed and those are counted that are directly connected with the tumor. In control animals those vessels are counted that are connected to a defined area around the injection site. This area corresponds to the mean area of the dermal tumors. The latter is determined by use of a caliper according to the equation 3.14×r^2. Compound A is administered s.c. either on the day of tumor inoculation or 3 days later. Control animals are vehicle-treated."}, "heart allograft": {"tested_on": "heart allograft", "assay": "Heterotopic mouse heart allotransplantation model", "type": "in vivo"}, "[1]": {"settings": "diabetic monkeys"}, "hsst4": {"biological_target": "T1, hsst4 (Homo sapiens, UniProt P31391)", "T1 construct": "expressed in transfected cells", "T1 sequence (P31391 whole entry)": "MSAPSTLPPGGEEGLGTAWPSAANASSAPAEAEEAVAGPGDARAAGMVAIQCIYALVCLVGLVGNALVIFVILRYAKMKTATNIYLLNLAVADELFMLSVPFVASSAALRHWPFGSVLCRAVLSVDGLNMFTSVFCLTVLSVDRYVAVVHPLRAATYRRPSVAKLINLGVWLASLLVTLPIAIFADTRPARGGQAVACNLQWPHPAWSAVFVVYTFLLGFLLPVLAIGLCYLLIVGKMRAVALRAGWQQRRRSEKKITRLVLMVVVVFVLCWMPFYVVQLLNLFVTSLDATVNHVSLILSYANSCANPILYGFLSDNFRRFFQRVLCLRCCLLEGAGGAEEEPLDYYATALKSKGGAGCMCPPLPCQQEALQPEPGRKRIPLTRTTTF", "assay": "Binding assay, membranes from cell lines expressing hsst4, [125I-Tyr11]-SRIF-14 radioligand", "settings": "competition binding", "description": "(§1) The experiments are carried out in triplicate."}, "hsst1": {"biological_target": "hsst1 (Homo sapiens, UniProt P30872)", "sequence (P30872 whole entry)": "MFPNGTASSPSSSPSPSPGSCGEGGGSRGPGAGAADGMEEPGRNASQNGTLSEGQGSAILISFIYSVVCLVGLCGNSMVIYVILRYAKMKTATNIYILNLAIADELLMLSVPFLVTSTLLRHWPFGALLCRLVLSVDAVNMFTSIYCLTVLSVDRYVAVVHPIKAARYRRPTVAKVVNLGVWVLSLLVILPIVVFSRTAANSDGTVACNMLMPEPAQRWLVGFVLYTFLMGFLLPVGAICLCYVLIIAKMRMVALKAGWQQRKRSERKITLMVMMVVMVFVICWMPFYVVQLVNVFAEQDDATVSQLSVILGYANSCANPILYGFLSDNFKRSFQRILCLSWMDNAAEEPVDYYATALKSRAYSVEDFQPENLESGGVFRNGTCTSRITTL", "assay": "biochemical", "experimental": "The binding assays may be carried out as disclosed hereunder using membranes from cell lines expressing selectively and stably hsst1, hsst2, hsst3, hsst4 or hsst5, e.g. CHO or COS cells.\nMembranes prepared from hsst selective cell lines, e.g. CHO or COS cells stably expressing hsst1 or hsst2 or hsst3 or hsst4 or hsst5 are incubated in triplicate in a total volume of 300 μl at 22° C. for 30 min with increasing concentrations of [^125I-Tyr^11]-SRIF-14 in 10 mmol/l Hepes buffer (pH 7.6) containing 0.5% BSA. The incubation is terminated by rapid filtration and the filters are counted in a counter. Specific binding is total binding minus non-specific binding in the presence of 1 μmol/l somatostatin-14. The experiments are carried out in triplicate. The affinity constant (KD) and number of binding sites are calculated using appropriate statistics and graphical programs."}, "[2]": {"biological_target": "growth hormone secretagogue receptors (Homo sapiens, UniProt Q92847)", "sequence (Q92847 whole entry)": "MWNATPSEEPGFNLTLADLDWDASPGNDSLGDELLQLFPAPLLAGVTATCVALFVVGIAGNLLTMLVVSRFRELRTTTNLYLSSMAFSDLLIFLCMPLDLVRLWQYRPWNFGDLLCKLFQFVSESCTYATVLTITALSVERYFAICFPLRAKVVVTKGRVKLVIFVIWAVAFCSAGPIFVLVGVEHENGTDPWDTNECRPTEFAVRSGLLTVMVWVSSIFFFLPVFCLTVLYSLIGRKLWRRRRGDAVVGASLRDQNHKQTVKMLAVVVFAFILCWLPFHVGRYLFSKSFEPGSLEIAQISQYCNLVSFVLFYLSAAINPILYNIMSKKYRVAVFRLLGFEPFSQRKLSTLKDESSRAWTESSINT", "description": "Such receptors are disclosed by G. Muccioli et al., J. Endocrinol. 1998, 157, 99-106, by H. Ong et al., in Endocrinology 1998, 139, 432-435 and by R. G. Smith et al., Norm. Res., 1999, 3), 1-8. The binding assay to these receptors may be carried out as disclosed in J. Endocrinol. Invest. 24: RC1-RC3, 2001."}, "hsst2": {"biological_target": "T2, hsst2 (Homo sapiens, UniProt P30874)", "T2 construct": "expressed in transfected cells", "T2 sequence (P30874 whole entry)": "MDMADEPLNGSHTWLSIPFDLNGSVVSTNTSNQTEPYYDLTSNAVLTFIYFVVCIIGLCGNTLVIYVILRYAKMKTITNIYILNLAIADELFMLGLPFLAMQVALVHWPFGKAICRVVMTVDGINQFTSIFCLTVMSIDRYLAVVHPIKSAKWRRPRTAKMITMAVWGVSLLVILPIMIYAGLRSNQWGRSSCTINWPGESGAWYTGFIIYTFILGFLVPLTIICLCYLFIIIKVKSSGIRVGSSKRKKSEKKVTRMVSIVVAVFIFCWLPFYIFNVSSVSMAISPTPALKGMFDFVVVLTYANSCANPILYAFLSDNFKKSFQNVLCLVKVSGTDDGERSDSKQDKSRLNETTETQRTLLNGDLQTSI", "assay": "Binding assay, membranes from cell lines expressing hsst2, [125I-Tyr11]-SRIF-14 radioligand", "settings": "competition binding", "description": "as §1"}, "hsst5": {"biological_target": "T3, hsst5 (Homo sapiens, UniProt P35346)", "T3 construct": "expressed in transfected cells", "T3 sequence (P35346 whole entry)": "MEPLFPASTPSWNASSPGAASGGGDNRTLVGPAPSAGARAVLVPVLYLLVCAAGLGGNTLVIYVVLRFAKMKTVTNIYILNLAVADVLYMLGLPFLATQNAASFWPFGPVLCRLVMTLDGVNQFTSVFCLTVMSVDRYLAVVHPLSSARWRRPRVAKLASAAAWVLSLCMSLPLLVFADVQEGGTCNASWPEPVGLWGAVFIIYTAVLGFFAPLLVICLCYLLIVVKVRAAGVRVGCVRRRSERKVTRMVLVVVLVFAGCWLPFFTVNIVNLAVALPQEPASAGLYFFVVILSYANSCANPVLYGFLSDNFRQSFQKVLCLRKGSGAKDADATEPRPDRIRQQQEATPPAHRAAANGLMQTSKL", "assay": "Binding assay, membranes from cell lines expressing hsst5, [125I-Tyr11]-SRIF-14 radioligand", "settings": "competition binding", "description": "as §1"}, "IGF-1 plasma levels": {"tested_on": "IGF-1 plasma levels", "assay": "IGF-1 plasma levels in vivo in male rats", "description": "Furthermore, Compound A inhibits IGF-1 plasma levels in vivo as indicated in standard tests using male rats. Briefly, Compound A is administered by osmotic pump implanted s.c. to male rats of a Lewis strain. Blood samples are collected from the retrobulbar plexus using a short anesthesia with e.g. isoflurane."}, "growth hormone release": {"tested_on": "growth hormone release", "assay": "Inhibition of growth hormone (GH) release in rats", "type": "in vivo", "settings": "s.c., 6 h, anaesthetized rats", "description": "Compound A inhibits the release of growth hormone (GH) in rats. Compound A is administered s.c. to anaesthetized rats. Blood is collected after decapitation 1 h after administration of the compound. The duration of action is estimated on the basis of the inhibition of basal GH secretion 6 h after drug treatment. Hormone levels are measured by RIA 1 h and 6 h after treatment. The ID50-value for the inhibition of the hormone secretion is determined graphically (log-probit) for each experiment and the resulting values are averaged logarithmically."}, "hsst3": {"biological_target": "T4, hsst3 (Homo sapiens, UniProt P32745)", "T4 construct": "expressed in transfected cells", "T4 sequence (P32745 whole entry)": "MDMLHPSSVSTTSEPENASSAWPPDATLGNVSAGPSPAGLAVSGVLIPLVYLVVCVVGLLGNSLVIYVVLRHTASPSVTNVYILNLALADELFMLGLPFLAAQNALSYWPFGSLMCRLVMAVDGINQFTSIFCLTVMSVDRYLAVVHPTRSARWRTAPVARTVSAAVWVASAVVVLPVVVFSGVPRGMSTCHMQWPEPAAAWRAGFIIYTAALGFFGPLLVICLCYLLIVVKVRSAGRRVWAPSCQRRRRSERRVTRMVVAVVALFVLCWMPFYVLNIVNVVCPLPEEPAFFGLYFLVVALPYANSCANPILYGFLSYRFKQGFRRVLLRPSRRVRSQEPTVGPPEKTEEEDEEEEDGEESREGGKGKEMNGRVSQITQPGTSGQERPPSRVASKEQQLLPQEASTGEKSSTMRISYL", "assay": "Binding assay, membranes from cell lines expressing hsst3, [125I-Tyr11]-SRIF-14 radioligand", "settings": "competition binding", "description": "as §1"}, "GH": {"tested_on": "GH", "assay": "Monkey studies, inhibition of GH", "type": "in vivo"}, "cultured pituitary cells": {"tested_on": "cultured pituitary cells", "assay": "Inhibition of GH release in vitro from cultured pituitary cells", "type": "cell-based, rats", "settings": "rat anterior pituitary cells, three hours, in the presence of 3×10^−10 M growth hormone releasing factor, RIA", "description": "For example, anterior pituitary glands from adult male rats are cut into small pieces and dispersed using 0.1% trypsin in 20 mM HEPES buffer. The dispersed cells are cultured for four days in MEM (Gibco) supplemented with 5% fetal calf serum, 5% horse serum, 1 mM NaHCO3, 2.5 nM dexamethasone, […] and 20 U/ml Pen/Strep. On the day of the experiment the attached cells are washed two times with Krebs-Ringer medium buffered with 20 mM HEPES and supplemented with 5 mM glucose and 0.2% BSA. Subsequently the cells are incubated for three hours with Compound A in the presence of 3×10^−10 M growth hormone releasing factor. The amount of growth hormone released into the medium is measured by RIA. Compound A has an IC50 of 0.4 nM in this assay."}, "carotid artery grafts": {"tested_on": "carotid artery grafts", "assay": "Carotid artery loop transplantation model", "type": "in vivo, mice", "settings": "50 μg/kg/h s.c. mini-pump, grafts harvested at 30 days, compared with non-treated animals", "description": "Compound A has also been tested in a carotid artery loop transplantation model using B10.A (2R) (H-2h^2) mice as donor and B10.BR(H-2^k) mice as recipient. In brief, the donor carotid artery is transplanted paratopically as a loop into the recipient's carotid artery by an end-to-side anastomosis. A mini-pump is placed s.c. immediately after transplantation that delivers Compound A at a rate of 50 μg/kg/h. Carotid artery grafts are harvested at 30 days after transplantation to analyse vascular remodeling e.g. by morphometric analysis of Verhoeff elastin stained paraffin sections using a computer-assisted system."}, "kidney allograft": {"tested_on": "kidney allograft", "assay": "Chronic allograft rejection, rat kidney allograft model", "type": "in vivo", "settings": "10 μg/kg/h infusion", "description": "Chronic Allograft Rejection\nThe kidney of a male DA (RT1^a) rat is orthotopically transplanted into a male Lewis (RT1^1) recipient. In total 24 animals are transplanted. All animals are treated with cyclosporine A at 7.5 mg/kg/day per os for 14 days starting on the day of transplantation, to prevent acute cellular rejection. Contralateral nephrectomy is not performed. Each experimental group treated with a distinct dose of Compound A or placebo comprises six animals. Starting 14 days after transplantation, the recipient animals are treated up to 112 days by infusion with Compound A or receive placebo. At 14 days after transplantation organ perfusion is measured by MRI. This is repeated at days 53-64 after transplantation and at the end of the experiment. The animals are then autopsied."}, "carotid artery neointima": {"tested_on": "carotid artery neointima", "assay": "Angioplasty, rat model of balloon catheter injury", "type": "in vivo", "settings": "10 μg/kg/h continuous infusion, 14 days after balloon injury", "description": "Studies on angioplasty are done in the rat model of balloon catheter injury. Balloon catheterization is performed on day 0, essentially as described by Powell et al. (1989). Under Isofluorane anaesthesia, a Fogarty 2F catheter is introduced into the left common carotid artery to obtain a uniform de-endothelialization. The catheter is then removed, a ligature placed around the external carotid to prevent bleeding and the animals allowed to recover. 2 groups of 12 RoRo rats (400 g, approximately 24 weeks old) are used for the study: one control group and one group receiving Compound A and the rats are fully randomized. Compound A is administered by continuous infusion using minipumps at a rate of 10 μg/kg/h starting 2 days before balloon injury […] until the end of the study, 14 days after balloon injury. The rats are then anaesthetized with Isofluorane and perfused with 0.1 M phosphate buffered saline solution (PBS, pH 7.4) and then for 15 min. with 2.5% glutaraldehyde in phosphate buffer (pH 7.4). Carotid arteries are then excised, separated from surrounding tissue and immersed in 0.1 M cacodylate buffer (pH 7.4) containing 7% saccharose and incubated overnight at 4° C. […] The cross-sectional area of the media, neointima and the lumen are evaluated morphometrically by means of an image analysis system (MCID, Toronto, Canada)."}, "Plasma half-life": {"assay": "Plasma half-life", "type": "in vivo", "settings": "read-out: Elimination half-life", "description": "Compound A has a beneficial plasma half-life. It has an elimination half-life between 15 and 30 hours."}, "insulin secretion": {"tested_on": "insulin secretion", "assay": "Similar assay for measuring the effect on insulin", "parameters": "species or system rats", "settings": "rat, in vivo"}}, "note": "*1 amine or outer side, *2 acyl side, *3 side chain or, on linkers, in order; H or OH if unused. Where a SMILES comes first, the peptide text is derived from it. Side-chain parts run from the residue outwards. [ ]: non-standard residue; d: D form. The star is where a group is joined. Ethylenediamine = C(CN[*:2])N[*:1]; Hyp = O=C(O)[C@@H]1C[C@@H](O)CN1; Phg = N[C@H](C(=O)O)c1ccccc1; CO = O=C([*:1])[*:2]; Bn = c1ccc(C*)cc1", "data": [{"smiles": "NCCCC[C@@H]1NC(=O)[C@@H](Cc2c[nH]c3ccccc23)NC(=O)[C@H](c2ccccc2)NC(=O)[C@@H]2C[C@@H](OC(=O)NCCN)CN2C(=O)[C@H](Cc2ccccc2)NC(=O)[C@H](Cc2ccc(OCc3ccccc3)cc2)NC1=O", "note": "[Compound A, cyclo[{4-(NH2—C2H4—NH—CO—O—)Pro}-Phg-DTrp-Lys-Tyr(4-Bzl)-Phe]] (cyclo([Hyp]([CO-Ethylenediamine])[Phg][dW]KY(Bn)F))", "values": [{"measurement": "Blood vessel formation", "setting": "blood vessel formation", "value": "inhibits blood vessel formation"}, {"measurement": "Vascular remodelling and graft infiltration", "setting": "heart allograft", "value": "beneficial effects on vascular remodelling as well as in graft infiltration"}, {"measurement": "Antidiabetic/insulin-sensitizing effect", "setting": "[1]", "value": "potent antidiabetic/insulin-sensitizing effect"}, {"measurement": "IC50", "setting": "hsst4", "value": "> 100", "unit": "nM"}, {"measurement": "IC50", "setting": "hsst1", "value": 9.3, "unit": "nM"}, {"measurement": "Displacement of 125I-Tyr-Ala-hexarelin", "setting": "[2]", "value": "displaces ^125I-Tyr-Ala-hexarelin"}, {"measurement": "IC50", "setting": "hsst2", "value": 1, "unit": "nM"}, {"measurement": "IC50", "setting": "hsst5", "value": 0.16, "unit": "nM"}, {"measurement": "Inhibition of IGF-1 plasma levels", "setting": "IGF-1 plasma levels; after 14 days of treatment with 10 μg/kg/h, osmotic pump s.c., male Lewis rats", "value": "more than 60%"}, {"measurement": "Lowering of IGF-1 plasma levels on continuous treatment", "setting": "IGF-1 plasma levels; rat recipients of aorta or kidney allografts, continuous infusion 10 μg/kg/h up to 126 days", "value": "significant and persistent lowering of IGF-1 plasma levels"}, {"measurement": "Mean basal ID50, inhibition of GH secretion", "setting": "growth hormone release", "value": 5.5, "unit": "µg/kg"}, {"measurement": "IC50", "setting": "hsst3", "value": 1.5, "unit": "nM"}, {"measurement": "Inhibition of GH", "setting": "GH", "value": "potent and efficacious inhibition of GH"}, {"measurement": "IC50", "setting": "cultured pituitary cells", "value": 0.4, "unit": "nM"}, {"measurement": "Neointimal formation", "setting": "carotid artery grafts", "value": "inhibits neointimal formation"}, {"measurement": "Chronic rejection related vascular remodelling and graft infiltration", "setting": "kidney allograft", "value": "reduction in chronic rejection related vascular remodelling and graft infiltration"}, {"measurement": "IGF-1 levels", "setting": "kidney allograft", "value": "marked and persistent drop of IGF-1 levels"}, {"measurement": "Organ perfusion (MRI)", "setting": "kidney allograft", "value": "improved organ perfusion"}, {"measurement": "Neointimal thickening", "setting": "carotid artery neointima", "value": "inhibits neointimal thickening significantly"}, {"measurement": "half-life", "setting": "Plasma half-life", "value": "900 to 1800", "unit": "min"}, {"measurement": "Effect on insulin secretion", "setting": "insulin secretion", "value": "inhibits insulin secretion"}]}]}
